Laboratory results reported in US20240197816A1, “COMPOSITION AND METHOD FOR PROLONG SURVIVAL OF TRANSPLANT AND RECIPIENT” (NovMetaPharma Co., Ltd., priority 2022, published 2024).

Legend:
[1] = tested on: transplanted kidney (F344 to LEWIS rats); assay: Graft kidney tissue findings (histology); assay type: in vivo, rat; details: TPL+CHP group; graft tissue on the 45th day
Excerpt: These phenomena are believed to be an effect of CHP that can suppress the acute rejection reaction that occurs within days after transplantation. In FIG. 5, graft kidney tissue findings on the 7th day of rejection in the left […] control group (Syngenic TPL) and on the 45th day in the CHP treated group (TPL+CHP).

[2] = tested on: transplanted kidney (F344 to LEWIS rats); assay: Evaluation of graft function (BUN, serum creatinine) after kidney transplantation; assay type: in vivo, rat
Excerpt: Individual data points represent the following groups: the syngeneic transplant recipients (Syngenic; n=3), transplant recipients without CHP administration (TPL; n=5), and the CHP-treated transplant recipients (TPL+CHP; n=5). […] This significant improvement in key renal function indicators highlights a promising advancement in post-transplant care, reducing the reliance on immunosuppressive therapies, and prolonging recipient survival and enhancing graft survival.

[3] = tested on: transplanted kidney; Nrf2; assay: PAS and Nrf2 immunohistochemistry of transplanted kidney five days after transplantation; assay type: in vivo, rat
Excerpt: All animals were sacrificed at five days from post-kidney transplantation. The administration of CHP to the transplant recipient group decreased tubular atrophy, tubulitis, endothelialitis, leukocyte infiltration, while increasing the level of antioxidative stress marker Nrf2 (Nuclear factor erythroid-2-related factor). These findings highlight the potential of CHP to exert protective (e.g., anti-inflammatory and antioxidative) effects in the transplantation rat model.

[4] = tested on: F344 donor kidney transplanted into LEWIS rats; assay: Survival of recipients in rat allogeneic kidney transplantation, minor MHC incompatible model; assay type: in vivo; details: CHP 40 mg/kg i.v. 1 hour before transplantation, then 40 mg/kg i.p. three times a week, n=4, untreated control 9 days (n=7)
Protocol: Donor surgery: After removing abdominal hair from donor rat under general anesthesia, the surgical area was disinfected and covered with surgical cloth. After a midline incision in the abdominal wall, one kidney was exposed, and 8 iu/kg of heparin was administered intravenously, followed by nephrectomy.
Table Surgery: Removed unnecessary tissue to anastomosis the artery, vein, and ureter of the extracted kidney to the blood vessel and ureter of the recipient, and covered and stored with gauze soaked in saline at 4° C.
Recipient surgery: After removal of abdominal hair of recipient rat under general anesthesia, the surgical area was disinfected and covered with surgical cloth. After a midline incision in the abdominal wall, the right kidney was exposed, the kidney was resected, and the donor renal artery and vein were anastomized end to side to the […]. The ureter of donor's kidney was sutured after incising the bladder. After confirming that the perfusion of the kidney was good (FIG. 1), the abdominal wall was closed, and the animal was placed on a blanket at 37° C. to recover.
As a minor MHC incompatible model, a kidney transplantation model F344 rats were used as donors and LEWIS rats were used as recipients. After resection of the recipients' right kidney on Day 0 (DO), the donors' kidney was transplanted into the recipients. […]

[5] = tested on: transplanted kidney (F344 to LEWIS rats); assay: Weekly ultrasound (color Doppler) of blood flow to the transplanted kidney; assay type: in vivo, rat; details: CHP treatment group, ultrasound once a week
Protocol: In the control group, CHP administration group (F344 to LEWIS rats), and inbred (LEWIS to LEWIS rats) kidney transplantation model, ultrasound was performed once a week to check the smooth flow of blood to the transplanted kidney.

O=C1N[C@@H](Cc2cnc[nH]2)C(=O)N2CCC[C@@H]12 [CHP, Cyclo histidine-proline]
borderline changes suggestive of acute cell-mediated rejection and microvascular inflammation [1]: rapidly decreased
focal glomerular necrosis and severe tubulointerstitial changes [1]: decrease
function of the grafted organ ([2]; CHP-treated animals, entire period of survival, weekly measurements over 46 weeks): fully function
serum creatinine ([2]; TPL+CHP group at 3 weeks after transplantation, syngenic group 0.71 mg/dL): 0.82 mg/dL
serum creatinine levels ([2]; five days post-transplantation, TPL+CHP n=5, TPL without CHP 7.23±0.39, p<0.0001): 1.32 ± 0.13 mg/dL
blood urea nitrogen (BUN) ([2]; five days post-transplantation, TPL+CHP n=5, TPL without CHP 193.5±8.54, p<0.0001): 41.98 ± 5.69 mg/dL
level of antioxidative stress marker Nrf2 ([3]; Nrf2 immunohistochemistry): increasing
tubular atrophy, tubulitis, endothelialitis, leukocyte infiltration ([3]; PAS staining): decreased
mean survival day (SMD) [4]: 326 days
blood flow to the transplanted kidney (ultrasound) [5]: blood flow to the kidney was smooth
